Measured values as given in patent publication US20170305984A1, “STATHERIN PEPTIDES” (THE UNIVERSITY OF WESTERN ONTARIO, priority 2014, published 2017).
“Also recorded” adds a separate entry of the source. Marks after values point to notes of the source that are not given here. Square brackets hold non-standard residues; d marks the D form. Ends that are not written are not given here. pS = N[C@@H](COP(=O)(O)O)C(=O)O

What was measured:
[1] = Enamel demineralization with chitosan nanoparticle coatings: calcium and phosphate released from enamel (Table 3); design: species or system human; settings: for demineralization / acid protection (in words): coated enamel vs not coated control, pH 4.5, 12 days
Method: Demineralization studies are conducted using thin sections of human enamel. Enamel minerals were analyzed using microradiography. To determine the influence of selected chitosan encapsulated salivary proteins on enamel demineralization, resin-coated enamel sections were first exposed to solutions containing chitosan encapsulated salivary proteins at a concentration of 1.0 mg/ml for 2 h at 37° C. To mimic the acidic environment of dental caries, chitosan encapsulated salivary proteins and control sections were placed into individual tubes with 3 ml of a demineralization solution containing 2.2 mM CaCl2, 2.2 mM NaH2PO4, 5 mM acetic acid, a pH 4.5. The sample was incubated at 37° C. with gentle agitation for a period of 12 days. All solutions contained 3 mM sodium azide as a bacteriostatic agent. Immediately after the demineralization period, the specimens were extensively washed with distilled water and dried with filter paper. Mineral loss was evaluated by comparing the microradiography taken before and after exposure to the acidic conditions. Enamel pieces were prepared as described and coated with chitosan nanoparticles, DR-9 encapsulated in chitosan nanoparticles, DR-9, and 0.05% NaF (gold standard group). In some groups, parotid saliva was allowed to adsorb first on enamel species to mimic the AEP (Table 3). Adsorption was allowed to proceed for a period of 2 hours at 37° C. with gentle agitation. Enamel specimens were then washed with distilled water and immersed in a demineralization solution, pH 4.5 for 12 days. This solution was used to measure the amount of calcium and phosphate released from enamel.

[2] = Chitosan encapsulation rate, ELISA of remaining unencapsulated protein or peptide; format: physicochemical; settings: encapsulation in chitosan nanoparticles
Text: Based on the optimized parameters for construction of chitosan micro- and nanoparticles, AEP was mixed directly with the chitosan solution. Chitosan micro- and nanoparticles were constructed, as described above, and the particles were characterized through Zeta sizing and SEM. Reverse Phase-High Performance Liquid Chromatography (RP-HPLC) and/or enzyme-linked immunosorbent assay (ELISA) was used to determine the degree of encapsulation by measuring the amount of free peptides, before and after the encapsulation procedure. Chitosan encapsulation of histatin 5, DR-9, RR-14 and bovine serum albumin was carried out to determine the chitosan encapsulation rate. ELISA assay assessed the remaining unencapsulated protein or peptide.

[3] = Enamel demineralization protection by constructed peptides: calcium and phosphate released from enamel (Example 1); design: species or system human; settings: for Mean Ca Conc. (calcium released from human enamel) / Mean PO4 Conc. (phosphate released from human enamel): 1 mg/mL peptide 2 hours 37° C., then demineralization solution pH 4.5, 37° C., 12 days, mean ± SD; for Enamel demineralization protection / mineral loss (in words): versus distilled water control and other groups, ANOVA, Tukey
Text: Enamel sample preparation was done as previously described (Siqueira et. al. 2010, J Dent Res. 2010; 89: 626-630, the relevant contents of which are incorporated herein by reference). Briefly, human permanent first molars without defects were cleaned, rinsed, and sectioned. After having the roots removed, the crowns were sliced sagittally into 4 sections (each with a 300 μm thickness) using a diamond saw, followed by grinding to a thickness of 150 μm using sandpaper. Each specimen was coated with a layer of light-cured dental adhesive (3M ESPE Scotchbond™ Universal) and nail varnish, excluding an untouched 2 mm window on the natural surface enamel. Each specimen was submerged in 1 mg/mL construct peptide solution or distilled water (control group) and incubated for 2 hours at 37° C. After this period, the samples were then submerged in 1 mL of demineralization solution (0.05M acetic acid; 2.2 mM CaCl2; 2.2 mM NaH2PO4; pH 4.5) at 37° C. for 12 days. Afterward, they were rinsed thoroughly with distilled water and dried with filter paper to remove any remaining acid residue. The remaining 1 mL of acidic solution was used to assess the calcium and phosphate concentration released from enamel during the demineralization process. The calcium concentration of the solution was assessed using a quantitative colorimetric calcium determination assay (QuantiChrom™ Calcium Assay Kit, Bioassay Systems, Hayward, Calif., USA) with a UV-visible spectrophotometer to determine the optical density at a wavelength of 612 nm. The phosphate concentration was assessed using a colorimetric assay (PiColorLock™ Gold Detection System, Innova Biosciences, Cambridge, U.K.) and UV-visible spectrophotometer, to determine the optical density at a wavelength of 635 nm. All samples were analyzed in duplicate. Statistical analysis was performed with ANOVA and the Tukey Range Test.

[4] = all studied concentrations, compared to other native statherin peptides; p<0.05; cited from earlier work
[5] = Inhibition of spontaneous precipitation of supersaturated calcium phosphate solutions (Alizarin Red S, 570 nm); settings: all test concentrations, compared to a group without any inhibitor; FIG. 4
Method: To investigate the ability of the chitosan encapsulated AEP proteins/peptides to prevent crystal growth, microtiter plates were coated with proteins/peptides in a HEPES buffer at RT for 1 h. The wells were washed followed by the addition of a solution containing phosphate (15 mM; pH 7.4), NaCl (150 mM) and CaCl2 (50 mM). The solutions were incubated for 4 h at room temperature, allowing the formation of hydroxyapatite crystals. After this period, the solution was removed, 5% Alizarin Red S (pH 4.2), was added, followed by cerylpyridinium chloride. Crystal production was analyzed spectrophotometrically at 570 nm.

[6] = adsorbed for 2 hrs at 37° C., demineralization solution pH 4.5 for 12 days, n = 10

Molecule | Encapsulation Efficiency [2] [%] | Mean Ca Conc. (calcium released from human enamel) [3] | Mean PO4 Conc. (phosphate released from human enamel) [3] | Enamel demineralization protection / mineral loss (in words) [3] | other results
[F-].[Na+] [NaF] | – | – | – | – | Calcium released from enamel [1, 6]: 0.30 ± 0.13 ^b mM; Phosphate released from enamel [1, 6]: 0.17 ± 0.06 ^b mM; demineralization / acid protection (in words) [1]: better acid protection
Bovine Serum Albumin: model protein for chitosan encapsulation | 88.3 | – | – | – | –
DSpSpEEKFLR (D[pS][pS]EEKFLR) [DR9] | 75.5 | 1.455 ± 2.13^B, C mM | 0.849 ± 1.80^B, C mM | – | hydroxyapatite growth inhibition [4]: significant effect; inhibition of calcium phosphate crystal growth [5]: statistically significant inhibition of calcium phosphate crystal growth; demineralization / acid protection (in words) [1]: intermediary level of demineralization protection
DSpSpEEKFLRDSpSpEEKFLR (D[pS][pS]EEKFLRD[pS][pS]EEKFLR) [DR9-DR9] | – | 0.581 ± 0.16^C mM | 0.514 ± 0.18^C mM | lowest mineral loss; also recorded: amplified by DR9-DR9 when compared to single DR9 or statherin | –
DSpSpEEKFLRRIGRFGYGYGPYQPVPEQPLYPQPYQPQYQQYTF (D[pS][pS]EEKFLRRIGRFGYGYGPYQPVPEQPLYPQPYQPQYQQYTF) [Statherin] | – | 1.117 ± 1.29^B, C mM | 0.681 ± 1.11^B, C mM | – | –
DSpSpEEKFLRRKFHEKHHSHRGYR (D[pS][pS]EEKFLRRKFHEKHHSHRGYR) [DR9-RR14] | – | 3.132 ± 2.46^B mM | 2.282 ± 2.01^B mM | intermediate value among the groups; also recorded: able to maintain the biological function of one of the precursor proteins, statherin | –
DSpSpEEKFLRVPAGLRKFHEKHHSHRGYR (D[pS][pS]EEKFLRVPAGLRKFHEKHHSHRGYR) [DR9-VPAGL-RR14] | – | 4.755 ± 1.35^A mM | 3.917 ± 0.82^A mM | did not provide any increased demineralization protection over the control | –
DSpSpEEKFLRVPLSLRKFHEKHHSHRGYR (D[pS][pS]EEKFLRVPLSLRKFHEKHHSHRGYR) [DR9-VPLSL-RR14] | – | 4.106 ± 2.13^A mM | 3.159 ± 1.85^A mM | did not provide any increased demineralization protection over the control | –
Histatin 5 | 82.9 | – | – | – | –
RKFHEKHHSHRGYR [RR-14] | 93.1 | – | – | – | –
